Like-named read-outs stand apart in the source and are kept apart here.
Tests used:
Rhyncosporium secalis = assay: Barley Scald fungicidal activity (RHYNSE); format: in vivo; settings: Hordeum vulgare, 24 h, high volume, 1 Day Protectant, read-out: RHYNSE % Control rating
Procedure: All fungicides were evaluated using the aforementioned method for their activity vs. all target diseases, unless stated otherwise. Wheat leaf blotch and brown rust activity were also evaluated using track spray applications, in which case the fungicides were formulated as EC formulations, containing 0.1% Trycol 5941 in the spray solutions. Wheat plants (variety Yuma) were grown from seed in a greenhouse in 50% mineral soil/50% soil-less Metro mix until the first leaf was fully emerged, with 7-10 seedlings per pot. These plants were inoculated with an aqueous spore suspension of Zymoseptoria tritici either prior to or after fungicide treatments. After inoculation the plants were kept in 100% relative humidity (one day in a dark dew chamber followed by two to three days in a lighted dew chamber at 20° C.) to permit spores to germinate and infect the leaf. The plants were then transferred to a greenhouse set at 20° C. for disease to develop. When disease symptoms were fully expressed on the 1st leaves of untreated plants, infection levels were assessed on a scale of 0 to 100 percent disease severity. Percent disease control was calculated using the ratio of disease severity on treated plants relative to untreated plants. Barley seedlings (variety Harrington) were propagated in soil-less Metro mix, with each pot having 8 to 12 plants, and used in the test when first leaf was fully emerged. Test plants were inoculated by an aqueous spore suspension of Rhyncosporium secalis 24 hr after fungicide treatments. After inoculation the plants were kept in a dew room at 22° C. with 100% relative humidity for 48 hr. The plants were then transferred to a greenhouse set at 20° C. for disease to develop. Fungicide formulation, application and disease assessment on the sprayed leaves followed the procedures as described in the Example A.

Phakopsora pachyrhizi = assay: Asian Soybean Rust fungicidal activity (PHAKPA); settings: Phakopsora pachyrhizi, in Glycine max
Pyricularia oryzae = assay: whole plant or invertebrate; format: in vivo; settings: 24 h, read-out: PYRIOR % Control rating
Cercospora beticola = assay: Leaf Spot of Sugar Beets fungicidal activity (CERCBE); format: in vivo; settings: 24 h, sugar beet, high volume, 1 Day Protectant, read-out: CERCBE % Control rating
Procedure: All fungicides were evaluated using the aforementioned method for their activity vs. all target diseases, unless stated otherwise. Wheat leaf blotch and brown rust activity were also evaluated using track spray applications, in which case the fungicides were formulated as EC formulations, containing 0.1% Trycol 5941 in the spray solutions. Wheat plants (variety Yuma) were grown from seed in a greenhouse in 50% mineral soil/50% soil-less Metro mix until the first leaf was fully emerged, with 7-10 seedlings per pot. These plants were inoculated with an aqueous spore suspension of Zymoseptoria tritici either prior to or after fungicide treatments. After inoculation the plants were kept in 100% relative humidity (one day in a dark dew chamber followed by two to three days in a lighted dew chamber at 20° C.) to permit spores to germinate and infect the leaf. The plants were then transferred to a greenhouse set at 20° C. for disease to develop. When disease symptoms were fully expressed on the 1st leaves of untreated plants, infection levels were assessed on a scale of 0 to 100 percent disease severity. Percent disease control was calculated using the ratio of disease severity on treated plants relative to untreated plants. Sugar beet plants (variety HH88) were grown in soil-less Metro mix and trimmed regularly to maintain a uniform plant size prior to test. Plants were inoculated with a spore suspension 24 hr after fungicide treatments. Inoculated plants were kept in a dew chamber at 22° C. for 48 hr then incubated in a greenhouse set at 24° C. under a clear plastic hood with bottom ventilation until disease symptoms were fully expressed. Fungicide formulation, application and disease assessment on the sprayed leaves followed the procedures as described in the Example A.

Zymoseptoria tritici = assay: Leaf Blotch of Wheat fungicidal activity (SEPTTR); format: in vivo; settings: Low Volume Cereal Activity at 121.5 g/Ha
Leptosphaeria nodorum = assay: Wheat Glume Blotch fungicidal activity (LEPTNO); format: in vivo; settings: Parastagonospora nodorum, 24 h, high volume, 1 Day Protectant, read-out: LEPTNO % Control rating
Procedure: All fungicides were evaluated using the aforementioned method for their activity vs. all target diseases, unless stated otherwise. Wheat leaf blotch and brown rust activity were also evaluated using track spray applications, in which case the fungicides were formulated as EC formulations, containing 0.1% Trycol 5941 in the spray solutions. Wheat plants (variety Yuma) were grown from seed in a greenhouse in 50% mineral soil/50% soil-less Metro mix until the first leaf was fully emerged, with 7-10 seedlings per pot. These plants were inoculated with an aqueous spore suspension of Zymoseptoria tritici either prior to or after fungicide treatments. After inoculation the plants were kept in 100% relative humidity (one day in a dark dew chamber followed by two to three days in a lighted dew chamber at 20° C.) to permit spores to germinate and infect the leaf. The plants were then transferred to a greenhouse set at 20° C. for disease to develop. When disease symptoms were fully expressed on the 1st leaves of untreated plants, infection levels were assessed on a scale of 0 to 100 percent disease severity. Percent disease control was calculated using the ratio of disease severity on treated plants relative to untreated plants. Wheat plants (variety Yuma) were grown from seed in a greenhouse in 50% mineral soil/50% soil-less Metro mix until the first leaf was fully emerged, with 7-10 seedlings per pot. These plants were inoculated with an aqueous spore suspension of Leptosphaeria nodorum 24 hr after fungicide treatments. After inoculation the plants were kept in 100% relative humidity (one day in a dark dew chamber followed by two days in a lighted dew chamber at 20° C.) to permit spores to germinate and infect the leaf. The plants were then transferred to a greenhouse set at 20° C. for disease to develop. Fungicide formulation, application and disease assessment followed the procedures as described in the Example A.

[1] = 24 h, read-out: PHAKPA 1DP % Control rating, soybean, high volume, 25 ppm, 1 Day Protectant
[2] = 72 h, read-out: PHAKPA 3DC % Control rating, soybean, high volume, 25 ppm, 3 Day Curative
[3] = 24 h, 1 Day Protectant, read-out: SEPTTR 1DP (Wheat Leaf Blotch, 1 Day Protectant)
[4] = 72 h, 3 Day Curative, read-out: SEPTTR 3DC (Wheat Leaf Blotch, 3 Day Curative)

Row | SMILES | pest or weed control at 100 ppm (Rhyncosporium secalis) [%] | pest or weed control at 25 ppm (Phakopsora pachyrhizi; [1]) [%] | pest or weed control at 25 ppm (Phakopsora pachyrhizi; [2]) [%] | pest or weed control at 100 ppm (Pyricularia oryzae) [%] | pest or weed control at 100 ppm (Cercospora beticola) [%] | pest or weed control at 121.5 g/ha (Zymoseptoria tritici; [3]) [%] | pest or weed control at 121.5 g/ha (Zymoseptoria tritici; [4]) [%] | pest or weed control at 100 ppm (Leptosphaeria nodorum) [%]
1 | COc1ccnc(C(=O)N[C@@H](C)C(=O)O[C@@H](C)C(Oc2ccc(F)cc2)c2ccc(F)cc2)c1OCOC(C)=O (stereo partly drawn) [Example 238] | > 80 | < 80 | < 80 | > 80 | > 80 | > 80 | > 80 | > 80
2 | COc1ccnc(C(=O)N[C@@H](C)C(=O)O[C@@H](C)[C@H](Oc2ccccc2)c2ccc(F)cc2F)c1OCOC(C)=O [Example 250] | < 80 | > 80 | < 80 | < 80 | < 80 | > 80 | > 80 | < 0
3 | COc1ccccc1[C@@H](Oc1ccccc1)[C@H](C)OC(=O)[C@H](C)NC(=O)c1nccc(OC)c1OCOC(C)=O [Example 255] | < 80 | > 80 | < 0 | > 80 | > 80 | > 80 | > 80 | > 80
4 | COc1cc(F)ccc1[C@@H](Oc1ccccc1)[C@H](C)OC(=O)[C@H](C)NC(=O)c1nccc(OC)c1OCOC(C)=O [Example 256] | > 80 | > 80 | < 0 | > 80 | > 80 | > 80 | > 80 | > 80
5 | COc1ccnc(C(=O)N[C@@H](C)C(=O)O[C@@H](C)[C@H](Oc2ccccc2)c2ccc(F)cc2C)c1OCOC(C)=O [Example 259] | > 80 | > 80 | < 0 | > 80 | > 80 | > 80 | > 80 | > 80
6 | COc1ccnc(C(=O)N[C@@H](C)C(=O)O[C@@H](C)[C@H](Oc2ccccc2)c2ccc(F)cc2Cl)c1OCOC(C)=O [Example 260] | > 80 | > 80 | < 80 | > 80 | > 80 | > 80 | > 80 | > 80

From patent US20180002288A1, “USE OF PICOLINAMIDES AS FUNGICIDES” (DOW AGROSCIENCES LLC, priority 2014, published 2018)
